Legend:
[1] = molecular target: T1, Transient receptor potential cation channel subfamily V member 1 (Homo sapiens, UniProt Q8NER1); assay: Antagonist activity against human TRPV1 expressed in CHO cells assessed as inhibition of capsaicin-induced channel activation by FLIPR assay; type: cell-based
Mus musculus [2] = assay: Anti-allodynic activity in orally dosed mouse model of chronic constriction injury-induced neuropathic pain assessed as inhibition of pain response; type: functional; settings: po
[3] = molecular target: T1, Transient receptor potential cation channel subfamily V member 1; assay: Antagonist activity against human TRPV1 expressed in CHO cells assessed as inhibition of pH-induced channel activation by FLIPR assay; type: cell-based
Mus musculus [4] = assay: Inhibition of capsaicin-induced hypothermia in mouse at 0.3 mg/kg, po administered 15 mins before capsaicin challenge and measured 30 mins post capsaicin injection; type: functional
Mus musculus [5] = assay: Inhibition of capsaicin-induced hypothermia in mouse administered orally 15 mins before capsaicin challenge and measured 30 mins post capsaicin injection; type: functional, organism-based
Mus musculus [6] = assay: Inhibition of capsaicin-induced hypothermia in mouse at 0.1 mg/kg, po administered 15 mins before capsaicin challenge and measured 30 mins post capsaicin injection; type: functional
Mus musculus [7] = assay: Anti-allodynic activity in mouse model of chronic constriction injury-induced neuropathic pain assessed as inhibition of pain response at 0.01 mg/kg, po; type: functional
Mus musculus [8] = assay: Inhibition of capsaicin-induced hypothermia in mouse at 1 mg/kg, po administered 15 mins before capsaicin challenge and measured 30 mins post capsaicin injection; type: functional
Mus musculus [9] = assay: Anti-allodynic activity in mouse model of chronic constriction injury-induced neuropathic pain assessed as inhibition of pain response at 0.001 mg/kg, po; type: functional
Mus musculus [10] = assay: Anti-allodynic activity in mouse model of chronic constriction injury-induced neuropathic pain assessed as inhibition of pain response at 0.1 mg/kg, po; type: functional
[11] = molecular target: T1, Transient receptor potential cation channel subfamily V member 1; assay: Antagonist activity against human TRPV1 expressed in CHO cells assessed as inhibition of NADA-induced channel activation by FLIPR assay; type: cell-based
Mus musculus [12] = assay: Inhibition of capsaicin-induced hypothermia in mouse at 10 mg/kg, po administered 15 mins before capsaicin challenge and measured 30 mins post capsaicin injection; type: functional
Mus musculus [13] = assay: Anti-allodynic activity in mouse model of chronic constriction injury-induced neuropathic pain assessed as inhibition of pain response at 0.0001 mg/kg, po; type: functional
[14] = molecular target: T1, Transient receptor potential cation channel subfamily V member 1; assay: Antagonist activity against human TRPV1 expressed in CHO cells assessed as inhibition of 45 degC heat-induced channel activation by FLIPR assay; type: cell-based

T1 sequence (Q8NER1 whole entry): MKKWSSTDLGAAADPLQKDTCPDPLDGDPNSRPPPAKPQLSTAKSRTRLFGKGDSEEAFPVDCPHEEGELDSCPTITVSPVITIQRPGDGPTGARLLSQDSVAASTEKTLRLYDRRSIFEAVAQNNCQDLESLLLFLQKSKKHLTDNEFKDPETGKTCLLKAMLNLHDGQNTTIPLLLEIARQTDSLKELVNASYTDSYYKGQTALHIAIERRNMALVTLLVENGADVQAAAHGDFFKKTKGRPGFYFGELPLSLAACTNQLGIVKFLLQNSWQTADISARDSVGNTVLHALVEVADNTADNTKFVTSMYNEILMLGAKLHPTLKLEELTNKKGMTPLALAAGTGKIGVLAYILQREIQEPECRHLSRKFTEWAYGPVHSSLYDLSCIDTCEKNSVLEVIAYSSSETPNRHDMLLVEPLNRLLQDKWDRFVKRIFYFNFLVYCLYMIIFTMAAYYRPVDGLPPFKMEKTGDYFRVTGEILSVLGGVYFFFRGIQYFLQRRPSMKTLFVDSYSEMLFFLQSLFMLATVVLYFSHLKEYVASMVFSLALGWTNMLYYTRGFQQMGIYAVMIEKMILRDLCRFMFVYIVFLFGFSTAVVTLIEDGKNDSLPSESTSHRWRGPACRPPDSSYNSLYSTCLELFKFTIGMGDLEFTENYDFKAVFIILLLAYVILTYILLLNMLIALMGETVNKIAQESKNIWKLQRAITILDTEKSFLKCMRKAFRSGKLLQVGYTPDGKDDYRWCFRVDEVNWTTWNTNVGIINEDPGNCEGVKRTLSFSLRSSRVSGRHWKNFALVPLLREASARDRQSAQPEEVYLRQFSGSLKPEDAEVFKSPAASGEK

CC(C(=O)NCc1ccc(C(F)(F)F)nc1-c1ccoc1)c1ccc(NS(C)(=O)=O)c(F)c1 (stereo unspecified)
Ki [1]: 1.4 nM

CC(C(=O)NCc1ccc(C(F)(F)F)nc1/C=C/c1ccccc1)c1ccc(NS(C)(=O)=O)c(F)c1 (stereo unspecified)
Ki [1]: 2.2 nM

CC(C(=O)NCc1ccc(C(F)(F)F)nc1-c1ccco1)c1ccc(NS(C)(=O)=O)c(F)c1 (stereo unspecified)
Ki [1]: 5.8 nM

CC(C(=O)NCc1ccc(C(F)(F)F)nc1-c1ccc(F)cc1)c1ccc(NS(C)(=O)=O)c(F)c1 (stereo unspecified)
ED50 (Mus musculus [2]): 0.01 mg/kg
Ki [3]: 131 nM
inhibition in vivo at 0.3 mg/kg (Mus musculus [4]): 38%
inhibition (Mus musculus [5]): Dose-dependent effect
inhibition in vivo at 0.1 mg/kg (Mus musculus [6]): 25%
MPE (Mus musculus [7]): 52.9%
inhibition in vivo at 1 mg/kg (Mus musculus [8]): 60%
MPE (Mus musculus [9]): 30.5%
MPE (Mus musculus [10]): 47.1%
Ki [11]: 0.84 nM
inhibition in vivo at 10 mg/kg (Mus musculus [12]): 91%
MPE (Mus musculus [13]): 21.9%
Ki [14]: 25.9 nM

CC(C(=O)NCc1ccc(C(F)(F)F)nc1-n1ccnc1)c1ccc(NS(C)(=O)=O)c(F)c1 (stereo unspecified)
Ki [1]: 36.1 nM

COc1cc(OC)cc(-c2nc(C(F)(F)F)ccc2CNC(=O)C(C)c2ccc(NS(C)(=O)=O)c(F)c2)c1 (stereo unspecified)
Ki [1]: 58 nM

CC(C(=O)NCc1ccc(C(F)(F)F)nc1Cc1ccccc1)c1ccc(NS(C)(=O)=O)c(F)c1 (stereo unspecified)
Ki [1]: 141 nM

CC(C(=O)NCc1ccc(C(F)(F)F)nc1-c1cc2ccccc2s1)c1ccc(NS(C)(=O)=O)c(F)c1 (stereo unspecified)
Ki [1]: 1 nM

CC(C(=O)NCc1ccc(C(F)(F)F)nc1-c1ccsc1)c1ccc(NS(C)(=O)=O)c(F)c1 (stereo unspecified)
Ki [1]: 2 nM
